Data from patent publication EP1531819B1, “USE OF I kappa B KINASE INHIBITORS FOR THE TREATMENT OF PAIN” (Sanofi-Aventis Deutschland GmbH, priority 2002, dated 2004).

Key:
[1] = system: Kaolin/Carrageenan induzierte Kniegelenksentzündung bei der Ratte; assay: Model 2: kaolin/carrageenan-induced knee joint inflammation, responses of spinal neurons to pressure on the knee; type: in vivo
Excerpt: Modell: Zymosan-induzierte Pfotenentzündung bei der Ratte; Parameter: Pfotenwegziehzeit oder Pfotenwegziehschwelle bei thermischer oder mechanischer Stimulation der Hinterpfote. • 2. Modell: Kaolin/Carrageenan induzierte Kniegelenksentzündung bei der Ratte; Parameter: Reaktion spinaler Neurone bei Druckreizung des Knies.
Versuchsdurchführung: Bei Ratten wurde in Trapanal-Narkose der Wirbelkanal eröffnet und Rückenmarksneurone, die "Schmerzimpulse" aus dem Kniegelenk verarbeiteten, identifiziert. Nach Identifizierung wurde eine Langzeitableitung durchgeführt, in der die Aktivität der Nervenzelle vor und während der Entwicklung einer akuten Entzündung im Kniegelenk registriert wurde. Dazu wurden in einer Kontrollperiode vor Induktion der Entzündung und nach Induktion der Entzündung für mehrere Stunden die Antworten auf nicht noxische und noxische Reizung am Kniegelenk gemessen.
Die akute Entzündung wurde durch die intraartikuläre Injektion einer Kaolin und Carrageenan Suspension (etwa 150 µl) induziert. In Kontrollexperimenten wurde nur das Vehikel auf die Rückenmarksoberfläche aufgebracht, um die Entwicklung der Übererregbarkeit unter Kontrollbedingungen darzustellen. In der Regel fand diese Entwicklung der Übererregbarkeit innerhalb von 2 bis 4 Stunden statt, und sie äußerte sich in einer starken Zunahme der Antworten auf nicht noxische und noxische Reizung des Kniegelenks (Tab. 3). […] Dann wurden die Antworten der Zelle auf nichtnoxische und noxische Reizung wie in den Kontrollexperimenten weiter verfolgt.

[2] = system: Zymosan-induzierte Pfotenentzündung bei der Maus; assay: Model 3: zymosan-induced paw inflammation, paw withdrawal latency on thermal stimulation (Hargreaves Test), AUC; type: in vivo; settings: for AUC Mittelwert [Maß für Hyperalgesie]: thermische Hyperalgesie
Experimental: Parameter: Pfotenwegziehzeit bei thermischer Stimulation der Hinterpfote. Versuchsdurchführung: In Kurzzeitnarkose mit Isofluran wurde dem Versuchstier 25 μl einer Suspension, die 50 mg/ml Zymosan enthielt, in die rechte Hinterpfote injiziert. Dann wurde die […] quantitativ wie folgt bestimmt: Bestimmung der Pfotenwegziehzeit bei thermischer Stimulation (Hargreaves Test; s.o.). Das Versuchstier wurde in […] Versuchstier nach der Erkundungsphase (etwa 5 min) nicht mehr bewegte, wurde […] zu stimulierenden Hinterpfote positioniert und […]. Die […] ab, so dass die Hauttemperatur […] linear […] Pfote […] ab. Die Pfotentemperatur zum Zeitpunkt des Wegziehens ist für das Tier gerade eben unangenehm, […] von thermischer Schmerzschwelle. Kurz vor Zymosan-Injektion und für 7 bis 14 Tage nach Injektion wurde […] an der rechten und linken Hinterpfote bestimmt. Anschließend wurde […] Integral der Fläche, die aus […] und […] Pfote gebildet wurde, bestimmt (AUC, area between the curves, s. Tabellen 5 und 6). Je größer dieser Wert ist, umso […], und je kleiner der Wert bei Tieren, die die Substanz erhalten, desto stärker ist der Therapieerfolg. In einer 7-Tage Studie induzierte die Zymosan Injektion in […], Tab. 5). In den anderen Gruppen wurde die Substanzgabe einen Tag nach Zymosan Injektion, […] schon […]. […] Die […] Studie (7 Tage) ergab, dass die AUC unter Substanzgabe dosisabhängig abnahm. […] In einer parallel […] von Tieren wurde Paracetamol in einer sehr hohen Dosis ebenfalls zweimal am Tag verabreicht. […] Paracetamol (Tab. 5). […] […] Zymosan Injektion und Dosierschema […] zuvor beschriebenen Studie. Einziger Unterschied war, dass die weitere Studie über 14 Tage lief.

[3] = system: Zymosan-induzierte Pfotenentzündung bei der Maus; assay: Model 4: zymosan-induced paw inflammation, spontaneous running wheel performance, AUC; type: in vivo, C57/B6 Mäuse
Excerpt: Das Versuchstier hat in seinem Haltungskäfig Zugang zu einem Laufrad, dessen Umdrehungen elektronisch registriert werden. Die C57/B6 Mäuse benutzen in den Nachtstunden freiwillig das Laufrad und legen im Mittel nach einer einwöchigen Gewöhnungsphase 4100 Meter/Nacht zurück. Nach Zymosan Injektion ist die nächtliche Laufstrecke verkürzt. Diese Abnahme der Laufleistung gilt als Parameter für entzündungsschmerzbedingte Funktionseinschränkung. Versuchsdurchführung: Die Laufstrecke/24 Std. wurde nach einer Eingewöhnungsphase eine Woche lang zur Bestimmung der Baseline gemessen. Dann wurde in Kurzzeitnarkose mit Isofluran dem Versuchstier 25 µl einer Suspension, die […] Zymosan enthielt, in die rechte Hinterpfote injiziert. Anschließend wurde Laufstrecke/24 Std. während der nächsten sieben Tage ermittelt. In der Auswertung wurde die Fläche unter der Kurve der Laufstreckenwerte bestimmt (AUC, Tab. 7): je kleiner die AUC, desto geringer die Laufleistung in der Woche nach Zymosan Injektion. […] Die Substanzgabe wurde am Tag 1 nach Zymosan Injektion begonnen.

[4] = Versuch 1, 30-60 min nach K/C-Injektion
[5] = Versuch 1, 60-120 min nach K/C-Injektion
[6] = Versuch 1, 120-180 min nach K/C-Injektion
[7] = Versuch 2, 30-60 min nach K/C-Injektion
[8] = Versuch 2, 120-180 min nach K/C-Injektion
[9] = Versuch 2, 180-240 min nach K/C-Injektion
[10] = 7 days after Zymosan, 200 mg/kg twice daily

2-(2-Methylamino-pyrimidin-4-yl)-1 H-benzoimidazol-5-carbonsäure ((S)1-carbamoyl-2- diphenylamin-ethyl)-amid [Verbindung 22]
Wirkung im Modell 2 [1]: gute Wirkung | Neuronale Antworten vor und während Kniegelenksentzündung, Nicht-noxische Reizung am Kniegelenk [1, 4]: -34,1 imp/15s | Neuronale Antworten vor und während Kniegelenksentzündung, Noxische Reizung am Kniegelenk [1, 4]: -109,1 imp/15s | Neuronale Antworten vor und während Kniegelenksentzündung, Nicht-noxische Reizung am Kniegelenk [1, 5]: -37,2 imp/15s | Neuronale Antworten vor und während Kniegelenksentzündung, Noxische Reizung am Kniegelenk [1, 5]: -101,1 imp/15s | Neuronale Antworten vor und während Kniegelenksentzündung, Nicht-noxische Reizung am Kniegelenk [1, 6]: -32,1 imp/15s | Neuronale Antworten vor und während Kniegelenksentzündung, Noxische Reizung am Kniegelenk [1, 6]: -37,8 imp/15s | Neuronale Antworten vor und während Kniegelenksentzündung, Nicht-noxische Reizung am Kniegelenk ([1]; Versuch 1, Baseline): 0 imp/15s | Neuronale Antworten vor und während Kniegelenksentzündung, Noxische Reizung am Kniegelenk ([1]; Versuch 1, Baseline): 0 imp/15s | Neuronale Antworten vor und während Kniegelenksentzündung, Nicht-noxische Reizung am Kniegelenk [1, 7]: -30,6 imp/15s | Neuronale Antworten vor und während Kniegelenksentzündung, Noxische Reizung am Kniegelenk [1, 7]: -9,2 imp/15s | Neuronale Antworten vor und während Kniegelenksentzündung, Nicht-noxische Reizung am Kniegelenk [1, 8]: 50,3 imp/15s | Neuronale Antworten vor und während Kniegelenksentzündung, Noxische Reizung am Kniegelenk [1, 8]: 60 imp/15s | Neuronale Antworten vor und während Kniegelenksentzündung, Nicht-noxische Reizung am Kniegelenk [1, 9]: 68,7 imp/15s | Neuronale Antworten vor und während Kniegelenksentzündung, Noxische Reizung am Kniegelenk [1, 9]: 96,7 imp/15s | Neuronale Antworten vor und während Kniegelenksentzündung, Nicht-noxische Reizung am Kniegelenk ([1]; Versuch 2, Baseline): 0 imp/15s | Neuronale Antworten vor und während Kniegelenksentzündung, Noxische Reizung am Kniegelenk ([1]; Versuch 2, Baseline): 0 imp/15s

CC(=O)Nc1ccc(O)cc1 [Paracetamol, reference compound]
Statistischer Unterschied gegenüber Vehikel ([2]; thermische Hyperalgesie AUC, 7 days, 200 mg/kg twice daily): ja | AUC Mittelwert [Maß für Hyperalgesie] [2, 10]: 24.6 | AUC Mittelwert (Laufradaktivität) [3, 10]: 187.2 | Laufleistung nach Zymosan Injektion gegenüber der Vehikelgruppe ([3]; 7 days, twice daily): keine Verbesserung gegenüber der Vehikelgruppe | Statistischer Unterschied gegenüber Vehikel ([3]; Laufradaktivität AUC, 7 days, 200 mg/kg twice daily): nein

Cc1ccc(-c2cc(C(F)(F)F)nn2-c2ccc(S(N)(=O)=O)cc2)cc1 [Celecoxib, reference compound]
AUC Mittelwert [Maß für Hyperalgesie] ([2]; 14 days after Zymosan, 25 mg/kg twice daily): 51.5
